This note sets out measurements from patent publication US20060160851A1, “Substituted piperidine carbamates” (Novo Nordisk A/S, priority 2003, published 2006).

The target of this experiment is T1, hormone sensitive lipase (Homo sapiens, UniProt Q05469).
T1 construct: made in house
T1 sequence (Q05469 1-1076): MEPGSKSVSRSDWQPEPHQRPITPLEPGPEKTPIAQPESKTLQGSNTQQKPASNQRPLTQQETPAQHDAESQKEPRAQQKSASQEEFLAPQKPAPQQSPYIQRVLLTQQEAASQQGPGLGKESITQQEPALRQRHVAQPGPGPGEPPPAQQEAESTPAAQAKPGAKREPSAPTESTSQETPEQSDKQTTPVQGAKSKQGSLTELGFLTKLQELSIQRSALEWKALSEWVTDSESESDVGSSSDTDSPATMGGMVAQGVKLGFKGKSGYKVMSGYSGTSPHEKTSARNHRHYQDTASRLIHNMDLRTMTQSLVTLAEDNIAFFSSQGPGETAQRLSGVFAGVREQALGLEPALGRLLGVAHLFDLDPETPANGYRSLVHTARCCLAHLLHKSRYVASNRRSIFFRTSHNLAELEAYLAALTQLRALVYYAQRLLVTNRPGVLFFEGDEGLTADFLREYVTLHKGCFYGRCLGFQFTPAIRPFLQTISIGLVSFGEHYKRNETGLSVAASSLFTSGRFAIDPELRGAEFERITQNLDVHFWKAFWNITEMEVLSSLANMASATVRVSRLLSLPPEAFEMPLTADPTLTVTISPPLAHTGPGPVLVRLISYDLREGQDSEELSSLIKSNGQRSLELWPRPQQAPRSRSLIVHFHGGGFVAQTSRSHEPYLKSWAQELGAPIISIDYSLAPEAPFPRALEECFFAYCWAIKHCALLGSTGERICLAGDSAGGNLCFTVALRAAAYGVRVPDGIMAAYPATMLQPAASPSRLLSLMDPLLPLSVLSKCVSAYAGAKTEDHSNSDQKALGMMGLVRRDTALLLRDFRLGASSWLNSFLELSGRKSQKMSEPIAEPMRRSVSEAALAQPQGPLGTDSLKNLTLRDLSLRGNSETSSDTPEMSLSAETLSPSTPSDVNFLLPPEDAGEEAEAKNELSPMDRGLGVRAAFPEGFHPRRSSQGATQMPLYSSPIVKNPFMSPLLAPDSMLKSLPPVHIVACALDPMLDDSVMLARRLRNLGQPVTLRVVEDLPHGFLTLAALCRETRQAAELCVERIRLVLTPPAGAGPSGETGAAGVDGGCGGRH
Kind of experiment: Assay 3190.1: percent inhibition of hormone sensitive lipase by compound at 10 μM (fluorochrome-labeled triacylglyceride emulsion, HSL_FL). It counts as biochemical. Particulars: 10 μM sample concentration, % activity relative to non-inhibited sample (no compound), 30 min preincubation at 25° C., 120 min incubation at 37° C.; for activity at 10 µM: read-out: Test 3190.1 HSL_FL % ACTIVITY
An excerpt: The Hormone-sensitive lipase was provided by Dr. Cecilia Holm, from Lund University Sweden or produced and purified by Novo Nordisk (NN) using the reagents and protocols used by Dr. Holm. The substrates used are: ^3H-labeled triolein (TO) from Amersham, Buckinghamshire, U.K. cat No. TRA191; 5-20 Ci/mmol dissolved in toluene, triolein (Sigma, Cat. No. T-1740), fluorochrome-labeled triacylglyceride (cis-octadec-9-enoic acid 2-[12-(7-nitrobenzo[1,2,5]oxadiazol-4-ylamino)dodecanoyloxy]-1-cis-octadec-9-enoyloxymethyl-ethyl ester) prepared by Novo Nordisk (NN) by conventional methods, and 1,3-(di[^3H]-stearin), 2-(PEG-Biotin)glycerol prepared in collaboration with Amersham Pharmacia Biotech, UK and described in WO 01/073442. Phosphatidyl choline (PC) and phosphatidyl inositol (PI) are from Sigma (St Luis Mo. cat. Nos. P-3556 and P-5954 respectively). All other reagents are of commercial grade and obtained from various commercial sources.
3190.1: Assay for determination of percent inhibition of hormone sensitive lipase by compound at 10 μM sample concentration.
A lipid emulsion with fluorochrome-labeled triacylglyceride and phospholipid is used as substrate with a standard concentration of highly purified HSL (12 μg/mL initial concentration corresponding to 600 ng/mL final concentration). BSA is added as product acceptor receptor. The transfer of the fluorochrome from the lipid phase to the water (BSA) phase changes the fluorescent properties of the fluorochrome. The changes can be monitored on a fluorimeter with an excitation wavelength of 450 nm and an emission wavelength of 545 nm.
Compound and HSL (20 μL compound, 10 μL enzyme and 70 μL PED-BSA buffer) is pre-incubated for 30 min at 25° C. before addition of substrate (100 μL). Amount of formed product is measured after 120 min incubation at 37° C.
Results are given as percent activity relative to a non-inhibited sample (no compound).

Molecules are shown by their SMILES.

For the molecule `O=C(O)Cc1cccc(OC2CCN(C(=O)Oc3ccc(Oc4ccc(C(F)(F)F)cn4)cc3)CC2)c1` [Example 110, 4-(3-Carboxymethyl-phenoxy)-piperidine-1-carboxylic acid 4-(5-trifluoromethyl-pyridin-2-yloxy)-phenyl ester], the activity at 10 µM was determined as 20%.
Still for that read-out and setting: the figure for `O=C(O)Cc1ccc(OC2CCN(C(=O)Oc3ccc(C(=O)NCC4CCCCC4)cc3)CC2)cc1` [Example 88, 4-(4-Carboxymethyl-phenoxy)-piperidine-1-carboxylic acid 4-(cyclohexylmethyl-carbamoyl)-phenyl ester] is 3%.
Still for that read-out and setting: the value for `O=C(O)Cc1ccc(OC2CCN(C(=O)Oc3ccc(CCOc4ccc(-n5cnnc5)cc4)cc3)CC2)cc1` [Example 97, 4-(4-Carboxymethyl-phenoxy)-piperidine-1-carboxylic acid 4-[2-(4-[1,2,4]triazol-4-yl-phenoxy)-ethyl]-phenyl ester] was 15%.
Take `CCOC(=O)CCc1ccc(OC2CCN(C(=O)Oc3ccc(Oc4ccc(C(F)(F)F)cn4)cc3)CC2)cc1` [Example 31, -[4-(2-Ethoxycarbonyl-ethyl)-phenoxy]-piperidine-1-carboxylic acid 4-(5-trifluoromethyl-pyridin-2-yloxy)-phenyl ester]: the “Test 3190.1 HSL_FL % ACTIVITY” value is given as 0%.
Regarding `O=C(Oc1ccc(Cc2ccc(C(F)(F)F)cc2)cc1)N1CCC(Cc2ncccn2)CC1` [Example 67, 4-Pyrimidin-2-ylmethyl-piperidine-1-carboxylic acid 4-(4-trifluoromethyl-benzyl)-phenyl ester], the activity at 10 µM amounted to 4%.
`CC1(C)CC(=O)N(CCc2ccc(OC(=O)N3CCC(Oc4ccc(C(=O)O)cc4)CC3)cc2)C(=O)C1` [Example 59, 4-(4-Carboxy-phenoxy)-piperidine-1-carboxylic acid 4-[2-(4,4-dimethyl-2,6-dioxo-piperidin-1-yl)-ethyl]-phenyl ester]: the activity at 10 µM amounted to 31%.
Still for that read-out and setting: the value for `O=C(Oc1ccc(Oc2ccc(C(F)(F)F)cn2)cc1)N1CCC(Cc2ccsc2)CC1` [Example 68, 4-Thiophen-3-ylmethyl-piperidine-1-carboxylic acid 4-(5-trifluoromethyl-pyridin-2-yloxy)-phenyl ester] was 3%.
In the case of `O=C(O)CCc1ccc(OC2CCN(C(=O)Oc3ccc(Oc4ccc(C(F)(F)F)cn4)cc3)CC2)cc1` [Example 37, 4-[4-(2-Carboxy-ethyl)-phenoxy]-piperidine-1-carboxylic acid 4-(5-trifluoromethyl-pyridin-2-yloxy)-phenyl ester], the activity at 10 µM stood at 1%.
For `O=C(O)c1ccc(-c2ccc(OC3CCN(C(=O)Oc4ccc(Oc5ccc(C(F)(F)F)cn5)cc4)CC3)cc2)cc1` [Example 35, 4-(4′-Carboxy-biphenyl-4-yloxy)-piperidine-1-carboxylic acid 4-(5-trifluoromethyl-pyridin-2-yloxy)-phenyl ester], the activity at 10 µM came to 14%.
